In assay [1] the target is C3a (complement anaphylatoxin C3a peptides in chronic wound fibrin slough) (human) (UniProt P01024). The experiment in a line: double immunogold electron microscopy (C3a 10 nm, C-termini of TFPI 20 nm), evaluation of 50 bacterial profiles in wound fibrin slough.
The test system of another assay is RAW 264.7 macrophages. The experiment in a line: NO production in RAW 264.7 macrophages stimulated with LPS or other microbial products (Griess reaction). It is filed as cell-based, mouse. Conditions: LPS from E. coli or P. aeruginosa; peptide at indicated concentrations (FIG. 41C). The protocol:
Effects of various microbial products on macrophages in vitro and anti-inflammatory effects by various peptides of HCII and TFPI. 3.5×10^5 cells were seeded in 96-well tissue culture plates (Nunc, 167008) in phenol red-free DMEM (Gibco) supplemented with 10% FBS and antibiotics. Following 6 hours of incubation to permit adherence, cells were stimulated with 10 ng/mL E. coli (0111:B4) LPS (Sigma), lipoteichoic acid, peptioglycan, or zymosan, with and without peptides at the indicated doses (se figure legends and figures). The levels of NO in culture supernatants were determined after 24 hours from stimulation using the Griess reaction. Briefly, nitrite, a stable product of NO degradation, was measured by mixing 50 μl of culture supernatants with the same volume of Griess reagent (Sigma, G4410) and reading absorbance at 550 nm after 15 min. Phenol-red free DMEM with FBS and antibiotics were used as a blank. A standard curve was prepared using 0-80 μM sodium nitrite solutions in ddH20.
LPS effects on macrophages in vitro—[…] cells were seeded in 96-well tissue culture plates (Nunc, 167008) in phenol red-free DMEM (Gibco) supplemented with 10% FBS containing 1% Anti-Anti (Invitrogen). Following 20 hours of incubation to permit adherence, cells were washed and stimulated with 10 ng/ml E. coli (0111:B4) or P. aeruginosa LPS (Sigma), with and without the peptides GGL27, GGL27(S), and DSE25 of various doses. The levels of NO in culture supernatants were determined after 24 hours from stimulation using the Griess reaction (27). Briefly, nitrite, a stable product of NO degradation, was measured by mixing 50 μl of culture supernatants with the same volume of Griess reagent (Sigma, G4410) and reading absorbance at 550 nm after 15 min. Phenol-red free DMEM with FBS and antibiotics were used as a blank. A standard curve was prepared using 0-80 μM sodium nitrite solutions in ddH20.
Background: Griess reagent forms a coloured azo dye with nitrite.

Assay [2] has as its system E. coli LPS shock in C57BL/6 mice. The experiment in a line: LPS model in vivo (LPS-induced shock): survival, cytokines, lungs. Also on record: species or system mouse. Conditions: for overall (proinflammatory) cytokine release: 20 h after LPS injection, peptide 500 μg; for survival: E. coli LPS i.p., peptide 500 μg i.p. 30 minutes after, followed 7 days. The protocol: Histochemistry—For immunostaining, wound biopsies were fixed in 10% formalin, rehydrated and embedded in paraffin. Sections of 5 μm thickness were placed on poly-lysine coated glass slides, deparaffinized in xylene and rehydrated in graded alcohols. The slides were then treated with Dako antigen retrieval solution (Dako) for 40 min at 97° C., and incubated for 24 h at room temperature in a 1:50 dilution of polyclonal antibodies against TFPI (Sigma-Aldrich, in TBS with 1% BSA, 5% goat serum, 0.05% Tween 20). After three 20 min washes in TBS with 0.05% Tween 20, the sections were incubated with alkaline phosphatase conjugated secondary goat anti-rabbit IgG (Dako) diluted 1:1000 in the same buffer as the primary antibody and incubated for another 24 hours, followed by three 20 min washes. Sections were developed with Vulcan Fast Red chromogen (Biocare Medical, Concord, Calif.) and the slides were counterstained with Harris Hematoxylin (EM Science, Gibbstown, N.J.). For histological evaluation of lungs derived from the in vivo LPS-models in mice, tissues were embedded as above, sectioned and stained with hematoxylin and eosin by routine procedures (Histocenter, Gothenburg, Sweden).
LPS model in vivo—Male C57BL/6 mice (8-10 weeks, 22+/−5 g), were injected intraperitoneally with 18 mg E. coli 0111:B4 LPS (Sigma) per kg of body weight. Thirty minutes after LPS injection, 0.5 mg GGL27, GGL27(S), DSE25 or buffer alone was injected intraperitoneally into the mice. Survival and status was followed during seven days. For blood collection and histochemistry, mice were sacrificed 20 h after LPS challenge, and lungs were removed and fixed. These experiments were approved by the Laboratory Animal Ethics Committee of Malmo/Lund.
Cytokine assay—The cytokines IL-6, IL-10, MCP-1, INF-γ, and TNF-α were measured in plasma from mice subjected to LPS (with or without peptide treatment) using the Cytometric bead array; mouse inflammation kit (Becton Dickinson AB) according to the manufacturer's instructions.

The subject of assay [3] is Escherichia coli, Pseudomonas aeruginosa, Bacillus subtilis, Staphylococcus aureus, Candida albicans, Candida parapsilosis. The assay is described as follows: Radial diffusion assay (RDA). Conditions: peptide at 100 μM, 6 μl per well; 18-24 h at 37° C. Type of assay: cell-based. The protocol: Radial diffusion assay. Essentially as described earlier, bacteria were grown to mid-logarithmic phase in 10 ml of full-strength (3% w/v) trypticase soy broth (TSB) (Becton-Dickinson). The microorganisms were then washed once with 10 mM Tris, pH 7.4. Subsequently, 4×10^6 cfu were added to 15 ml of the underlay agarose gel, consisting of 0.03% (w/v) TSB, 1% (w/v) low electroendosmosis type (EEO) agarose (Sigma-Aldrich) and 0.02% (v/v) Tween 20 (Sigma-Aldrich). The underlay was poured into a Ø 144 mm petri dish. After agarose solidification, 4 mm-diameter wells were punched and 6 μl peptide solution of required concentration added to each well. Plates were incubated at 37° C. for 3 h to allow peptide diffusion. The underlay gel was then covered with 15 ml of molten overlay (6% TSB and 1% Low-EEO agarose in distilled H2O). Antimicrobial activity of a peptide was visualized as a zone of clearing around each well after 18-24 h of incubation at 37° C.
Radial diffusion assay—Essentially as described earlier (23, 24), bacteria were grown to mid-logarithmic phase in 10 ml of full-strength (3% w/v) trypticase soy broth (TSB) (Becton-Dickinson). The microorganisms were then washed once with 10 mM Tris, pH 7.4. […]

The next assay concerns bacteria. Conditions: cited from earlier work.
The subject of another assay is P. aeruginosa. The experiment in a line: Viable count analysis, P. aeruginosa. It is filed as cell-based, Pseudomonas aeruginosa. Conditions: 20% human citrate plasma. The protocol: (§1) Viable count analysis—E. coli strains were grown to mid-logarithmic phase in Todd-Hewitt (TH). P. aeruginosa strains were grown in TH overnight. Bacteria were washed and diluted in 10 mM Tris, pH 7.4 containing 5 mM glucose. 2×10^6 cfu/ml bacteria were incubated in 50 μl, at 37° C. for 2 h with the C-terminal TFPI-derived peptides GGL27, TKR22, or LIK17 at the indicated concentrations. Additional experiments were performed in 10 mM Tris, pH 7.4, containing 0.15 M NaCl, either alone or with 20% normal or heat inactivated citrate-plasma. Serial dilutions of the incubation mixture were plated on TH agar, followed by incubation at 37° C. overnight and cfu determination.

In assay [4] the test system is intrinsic pathway of coagulation in normal human plasma. The assay is described as follows: Clotting assay: activated partial thromboplastin time (aPTT). It is filed as biochemical. The protocol: (§2) Clotting assays. All clotting times were measured using an Amelung coagulometer. Activated partial thromboplastin time (aPTT) was measured by incubating the peptides diluted in sterile water at the indicated concentrations, with 100 μL citrated human plasma for 1 minute followed by the addition of 100 μL aPTT reagent (aPTT Automate, Diagnostica Stago) for 60 seconds at 37° C. Clotting was initiated by the addition of 100 μL of a 25-mM CaCl2 solution. In the prothombrin time assay (PT), clotting was initiated by the addition of 100 μL Thrombomax with calcium (PT reagent; Sigma-Aldrich). For measuring the thrombin clotting time (TCT), clotting was initiated by the addition of 100 μL Accuclot thrombin time reagent (TCT reagent; Sigma-Aldrich).

For assay [5], the system named is thrombin induced fibrin network formation in normal human plasma. The experiment in a line: Clotting assay: thrombin clotting time (TCT). Type of assay: biochemical. The protocol: as §2
The next assay has as its system E. coli. The experiment in a line: Viable count analysis, E. coli. Type of assay: cell-based, Escherichia coli. The protocol: Viable count analysis. E. coli ATCC 25922 bacteria were grown to mid-logarithmic phase in Todd-Hewitt (TH) medium. Bacteria were washed and diluted in 10 mM Tris, pH 7.4 containing 5 mM glucose. E. coli ATCC 25922 (50 μl; 2×10^6 cfu/ml) were incubated, at 37° C. for 2 h with peptides at the indicated concentrations. Other experiments with the TFPI-peptides and LL-37 were performed in 10 mM Tris, pH 7.4, containing also 0.15 M NaCl, with normal or heat inactivated 20% citrate-plasma (PP). Serial dilutions of the incubation mixture were plated on TH agar, followed by incubation at 37° C. overnight and cfu determination.
as §1

C3a (complement anaphylatoxin C3a peptides in chronic wound fibrin slough) (human), sequence (P01024 672-748): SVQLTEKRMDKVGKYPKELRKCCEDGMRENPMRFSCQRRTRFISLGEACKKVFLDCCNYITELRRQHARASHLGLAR

On to “C-terminal TFPI peptides (endogenous C-terminal fragments of tissue factor pathway inhibitor found in human chronic wound fibrin slough) (from UniProt P10646 268-304)”, for which the percent of TFPI-molecules associated with C3a in assay [1] came to 70%.

With “DSEEDEEHTIITDTELPPLKLMHSF (DSE25 control peptide) [control peptide from the N-terminus of TFPI, reference compound]”, in the assay on RAW 264.7 macrophages, the “LPS-mediated NO release” value was “did neither block NO release”. In addition, in assay [2], the “overall (proinflammatory) cytokine release” value was “nor significantly alter overall cytokine release” and the survival result is recorded as “nor significantly alter overall cytokine release, as well as survival”. In assay [3], the “antimicrobial activity (zones of clearance)” value is recorded as “no antimicrobial effects”.

Regarding “GGLISTSSSSSSQRVKIAYEEIFVKNM (GGL27(S) control peptide) [control peptide, central K/R residues of GGL27 replaced by S, reference compound]”, the “LPS-mediated NO release” value in the assay on RAW 264.7 macrophages was “did neither block NO release”. Besides, in assay [2], the “overall (proinflammatory) cytokine release” value is on record as “nor significantly alter overall cytokine release” and the survival result is “nor significantly alter overall cytokine release, as well as survival”. In assay [3], the “antimicrobial activity (zones of clearance)” value is reported as “no antimicrobial effects”.

“GKRKKKGKGLGKKRDPCLRKYK (Heparin-binding growth factor derived peptide) [GKR22]”: the “antibacterial activity at physiological conditions” value in the assay on bacteria is listed as “retain their antibacterial activity at physiological conditions”.

As for “HKHGHGHGKHKNKGKKNGKH (A kininogen-derived antimicrobial peptide) [HKH20]”, the “antibacterial activity at physiological conditions” value with bacteria is recorded as “retain their antibacterial activity at physiological conditions”.

In the case of “TKRKRKKQRVKIAYEEIFVKNM [TKR22, C-terminal peptide of TFPI]”, the “killing in human plasma compared with physiological buffer” value in the assay with P. aeruginosa was “not enhanced”. The “activated partial thromboplastin time (aPTT)” value in assay [4] is recorded as “impair the intrinsic pathway of coagulation”. The “thrombin clotting time (TCT)” value in [5] was “not significantly affected”. For the same substance, in the assay on E. coli (0.15 M NaCl, 10 mM Tris, pH 7.4 with 20% human citrate plasma, versus buffer), the “bactericidal activity in presence of human plasma” value is reported as “significantly enhanced”. Also, in the assay on E. coli (20% heat-inactivated human citrate plasma), the “bactericidal activity in heat-inactivated plasma” value is “abolished the potentiation”.
